Reference: US12385039B2, “Trinucleotide cap analogs, preparation and uses thereof” (LIFE TECHNOLOGIES CORPORATION, priority 2020, dated 2025)

Key:
T7 RNA polymerase = T7 RNA polymerase (Escherichia phage T7, UniProt P00573); details: HB-WT Template, ARCA Cap (4:1 ARCA:GTP)
Method: The DNAzyme reaction was performed in a 20 μl reaction containing 1-2 μg RNA and 0.5 μM DNAzyme in 50 mM Tris-HCl pH 7.5. The reaction mixture was preheated at 85° C. for 30 seconds and equilibrate at 37° C. for 5 minutes and added magnesium chloride to 10 mM so that the total volume was 20 μl. The reaction mixture was incubated at 37° C. for 1 hour and stopped by adding 2 μL TURBO DNase and incubating at 37° C. for 30 minutes.
The DNAzyme reaction mixture was prepared for gel analysis by mixing with 2× NOVEX™ TBE-Urea sample buffer (Thermo Fisher Scientific, cat. no. LC6876) and heating at 70° C. for 2 minutes. The sample was loaded onto a NovEx™ 15% TBE-Urea gel (Thermo Fisher Scientific, cat. no. EC68855BOX) and ran at 15 V, 15 mA for 1 hour and 40 minutes or until the bromophenol blue dye migrated to the bottom of the gel. The gel was removed from the cassette, washed in water, and stained with SYBR™ Gold Nucleic Acid Gel Stain (Thermo Fisher Scientific, cat. no. S11494) for 5-10 minutes. Following a brief wash in water, the gel was visualized over an UV light and an image was captured using an iBRIGHT™ system (Thermo Fisher Scientific). Capping efficiency was determined using […] ™ software (ProteinSimple) to measure band intensities of the fast and slow migrating transcripts (capped transcripts are longer than uncapped transcripts; therefore uncapped migrates faster).

T7 or SP6 RNA polymerase = details: either 3'-OH of G or m7G can initiate elongation; cited from earlier work

T7 RNA polymerase, sequence (P00573 whole entry, looked up): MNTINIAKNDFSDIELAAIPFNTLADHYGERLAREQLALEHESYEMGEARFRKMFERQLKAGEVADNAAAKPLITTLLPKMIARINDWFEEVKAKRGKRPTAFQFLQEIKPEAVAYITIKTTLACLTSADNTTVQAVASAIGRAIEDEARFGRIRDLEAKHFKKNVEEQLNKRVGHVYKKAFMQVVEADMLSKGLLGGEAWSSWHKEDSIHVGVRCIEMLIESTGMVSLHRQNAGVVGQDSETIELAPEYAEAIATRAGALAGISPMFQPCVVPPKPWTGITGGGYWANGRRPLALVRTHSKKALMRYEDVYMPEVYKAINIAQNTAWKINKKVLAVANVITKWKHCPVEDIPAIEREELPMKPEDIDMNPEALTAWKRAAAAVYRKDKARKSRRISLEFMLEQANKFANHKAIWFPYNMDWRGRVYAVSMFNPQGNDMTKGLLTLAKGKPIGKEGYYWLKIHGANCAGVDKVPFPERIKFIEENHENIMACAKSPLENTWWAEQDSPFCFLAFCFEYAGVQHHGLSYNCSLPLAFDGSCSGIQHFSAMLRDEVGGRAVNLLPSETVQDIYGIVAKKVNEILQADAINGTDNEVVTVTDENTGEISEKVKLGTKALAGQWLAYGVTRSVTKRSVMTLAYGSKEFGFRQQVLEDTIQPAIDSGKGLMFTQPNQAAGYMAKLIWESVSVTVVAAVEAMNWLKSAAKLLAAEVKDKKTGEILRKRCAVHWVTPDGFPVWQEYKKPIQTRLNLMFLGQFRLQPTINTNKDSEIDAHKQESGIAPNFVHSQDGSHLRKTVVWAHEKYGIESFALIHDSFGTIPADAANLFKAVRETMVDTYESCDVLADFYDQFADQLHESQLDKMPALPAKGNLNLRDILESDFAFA

Row | SMILES | Capping Efficiency Avg % capped (T7 RNA polymerase) [%] | capped RNA that is translatable (T7 or SP6 RNA polymerase) [%]
1 | CO[C@H]1[C@@H](O)[C@H](n2c[n+](C)c3c(=O)[nH]c(N)nc32)O[C@@H]1COP(=O)(O)OP(=O)(O)OP(=O)(O)OC[C@H]1O[C@@H](n2cnc3c(=O)[nH]c(N)nc32)[C@H](O)[C@@H]1O [ARCA Cap] | 71.93 | –
2 | Cn1c[n+]([C@@H]2O[C@H](COP(=O)(O)OP(=O)(O)OP(=O)(O)OC[C@H]3O[C@@H](n4cnc5c(=O)[nH]c(N)nc54)[C@H](O)[C@@H]3O)[C@@H](O)[C@H]2O)c2nc(N)[nH]c(=O)c21 [mCAP, m^7G(5′)ppp(5′)G] | – | ~50
